Measured values taken from patent US20240316045A1, “CYCLOPROPYLAMIDE COMPOUNDS AGAINST PARASITES IN FISH” (Intervet Inc., priority 2021, published 2024).

Test system: Copepodids (juvenile sea lice stage of Lepeophtheirus salmonis)
Assay: Juvenile sea lice contact assay
Details: 24 h, read-out: Sea lice inhibition (% of dead+damaged copepodids)
Method: Copepodids (juvenile sea lice stage of Lepeophtheirus salmonis) were exposed to seawater spiked with declining concentrations of a test compound (dissolved in a DMSO sea-water mixture). Sea lice inhibition (% of dead+damaged copepodids) was assessed after approximately 24 hours of continuous exposure. The vitality of used parasites was confirmed in a negative (solvent) control group.

| SMILES | inhibition at 0.1 µM [%] | inhibition at 0.001 µM [%] |
| --- | --- | --- |
| O=C(Nc1ccc(F)cc1)c1cc(NC(=O)C2C(c3cc(Cl)cc(Cl)c3)C2(Cl)Cl)ccc1F (centres unmarked) [Compound 1003] | ≥ 80 |  |
| O=C(Nc1ccc(F)cc1F)c1cc(NC(=O)[C@H]2[C@H](c3ccc(F)c(Cl)c3)C2(Cl)Cl)ccc1Cl [Compound 1087] |  | 100 |

Same assay, conditions: test concentration 10 nM, approx. 24 hours continuous exposure, read-out: Sea lice inhibition (% of dead+damaged copepodids)

| SMILES | inhibition at 0.01 µM [%] |
| --- | --- |
| O=C(Nc1cncnc1)c1cc(NC(=O)C2C(c3cc(Cl)cc(Cl)c3)C2(Cl)Cl)ccc1Cl (centres unmarked) [Compound 1038] | 80 |
| O=C(Nc1ccccc1)c1cc(NC(=O)C2C(c3cc(Cl)cc(Cl)c3)C2(Cl)Cl)ccc1Cl (centres unmarked) [Compound 1004] | 80 |
| O=C(Nc1ccc(F)cc1F)c1cc(NC(=O)C2C(c3cc(C(F)(F)F)cc(C(F)(F)F)c3)C2(Cl)Cl)ccc1Cl (centres unmarked) [Compound 1386] | 80 |
| O=C(Nc1ncc(F)cc1F)c1cc(NC(=O)C2C(c3cc(Cl)c(F)c(Cl)c3)C2(Cl)Cl)ccc1Cl (centres unmarked) [Compound 1383] | 100 |
| N#Cc1ccc(NC(=O)c2cc(NC(=O)C3C(c4cc(Cl)cc(Cl)c4)C3(Cl)Cl)ccc2Cl)cn1 (centres unmarked) [Compound 1011] | 100 |
| Cc1ccccc1NC(=O)c1cc(NC(=O)C2C(c3cc(Cl)cc(Cl)c3)C2(Cl)Cl)ccc1Cl (centres unmarked) [Compound 1000] | 100 |

Same assay, conditions: test concentration 100 nM, approx. 24 hours continuous exposure, read-out: Sea lice inhibition (% of dead+damaged copepodids)

| SMILES | inhibition at 0.1 µM [%] |
| --- | --- |
| Nc1cccc(NC(=O)c2cc(NC(=O)C3C(c4cc(Cl)cc(Cl)c4)C3(Cl)Cl)ccc2Cl)n1 (centres unmarked) [Compound 1045] | 100 |
| Cc1ccc(NC(=O)C2C(c3cc(Cl)cc(Cl)c3)C2(Cl)Cl)cc1C(=O)Nc1ccc(F)cc1 (centres unmarked) [Compound 1001] | 100 |
| O=C(Nc1ccc(F)cc1)c1cc(NC(=O)C2C(c3cc(Cl)cc(Cl)c3)C2(Cl)Cl)ccc1Cl (centres unmarked) [Compound 1021] | 100 |
| Nc1cccc(NC(=O)c2cc(NC(=O)C3C(c4ccc(F)c(Cl)c4)C3(Cl)Cl)ccc2Cl)n1 (centres unmarked) [Compound 1046] | 100 |
| O=C(Nc1ncc(F)cc1F)c1cc(NC(=O)C2C(c3cccc(C(F)F)c3)C2(Cl)Cl)ccc1Cl (centres unmarked) [Compound 1085] | 100 |
| O=C(Nc1ncc(F)cc1F)c1cc(NC(=O)C2C(c3ccc(C(F)F)c(Cl)c3)C2(Cl)Cl)ccc1Cl (centres unmarked) [Compound 1083] | 100 |
| O=C(Nc1cccc(F)n1)c1cc(NC(=O)C2C(c3cc(Cl)cc(Cl)c3)C2(Cl)Cl)ccc1Cl (centres unmarked) [Compound 1030] | ≥ 80 |
| O=C(Nc1ncc(F)cc1F)c1cc(NC(=O)C2C(c3cc(Cl)cc(C(F)F)c3)C2(Cl)Cl)ccc1Cl (centres unmarked) [Compound 1079] | 100 |
| O=C(Nc1ccc2nccn2c1)c1cc(NC(=O)C2C(c3cc(Cl)cc(Cl)c3)C2(Cl)Cl)ccc1Cl (centres unmarked) [Compound 1373] | 100 |
| O=C(Nc1cccnc1)c1cc(NC(=O)C2C(c3cc(Cl)cc(Cl)c3)C2(Cl)Cl)ccc1Cl (centres unmarked) [Compound 1008] | 100 |
| O=C(Nc1cncc([N+](=O)[O-])c1)c1cc(NC(=O)C2C(c3cc(Cl)cc(Cl)c3)C2(Cl)Cl)ccc1Cl (centres unmarked) [Compound 1051] | 100 |
| O=C(Nc1ccc(F)cc1F)c1cc(NC(=O)C2C(c3cc(C(F)(F)F)cc(C(F)(F)F)c3)C2(Cl)Cl)ccc1F (centres unmarked) [Compound 1387] | 100 |
| Cc1ccc(NC(=O)C2C(c3ccc(Cl)c(Cl)c3)C2(Cl)Cl)c(F)c1C(=O)Nc1ncc(F)cc1F (centres unmarked) [Compound 1382] | 100 |
| COc1ccc(NC(=O)c2cc(NC(=O)C3C(c4ccc(F)c(Cl)c4)C3(Cl)Cl)ccc2Cl)cn1 (centres unmarked) [Compound 1076] | ≥ 80 |
| O=C(Nc1ncc(F)cn1)c1cc(NC(=O)C2C(c3cc(Cl)cc(Cl)c3)C2(Cl)Cl)ccc1Cl (centres unmarked) [Compound 1028] | 100 |
| Nc1c(F)ccc(NC(=O)c2cc(NC(=O)C3C(c4cc(F)cc(C(F)(F)F)c4)C3(Cl)Cl)ccc2Cl)c1F (centres unmarked) [Compound 1132] | 100 |
| Nc1c(F)ccc(NC(=O)c2cc(NC(=O)C3C(c4cccc(F)c4)C3(Cl)Cl)ccc2Cl)c1F (centres unmarked) [Compound 1227] | 100 |
| O=C(Nc1ncc(F)c(I)c1F)c1cc(NC(=O)C2C(c3cc(Cl)cc(Cl)c3)C2(Cl)Cl)ccc1Cl (centres unmarked) [Compound 1060] | 100 |
| Cc1cc(Cl)cc(C2C(C(=O)Nc3ccc(Cl)c(C(=O)Nc4ccc(F)cc4)c3)C2(Cl)Cl)c1 (centres unmarked) [Compound 1016] | 100 |

| SMILES | inhibition at 0.1 µM [%] |
| --- | --- |
| Cc1cc(F)cnc1NC(=O)c1cc(NC(=O)C2C(c3cc(Cl)cc(Cl)c3)C2(Cl)Cl)ccc1Cl (centres unmarked) [Compound 1031] | 100 |
| N#Cc1cc(F)ccc1NC(=O)c1cc(NC(=O)C2C(c3cc(Cl)cc(Cl)c3)C2(Cl)Cl)ccc1Cl (centres unmarked) [Compound 1026] | 100 |
| N#Cc1cc(Cl)cc(C2C(C(=O)Nc3ccc(Cl)c(C(=O)Nc4ncc(F)cc4F)c3)C2(Cl)Cl)c1 (centres unmarked) [Compound 1048] | 100 |
| O=C(Nc1ncc(F)cc1F)c1cc(NC(=O)C2C(c3ccc(Cl)c(C(F)F)c3)C2(Cl)Cl)ccc1Cl (centres unmarked) [Compound 1080] | 100 |
| N#Cc1cccc(F)c1NC(=O)c1cc(NC(=O)C2C(c3cc(Cl)cc(Cl)c3)C2(Cl)Cl)ccc1Cl (centres unmarked) [Compound 1040] | 100 |
| O=C(Nc1ccc(Cl)nc1)c1cc(NC(=O)C2C(c3cc(Cl)cc(Cl)c3)C2(Cl)Cl)ccc1Cl (centres unmarked) [Compound 1010] | 100 |
| COc1cc(NC(=O)c2cc(NC(=O)C3C(c4cc(Cl)cc(Cl)c4)C3(Cl)Cl)ccc2Cl)ccn1 (centres unmarked) [Compound 1069] | 100 |
| Nc1c(F)ccc(NC(=O)c2cc(NC(=O)C3C(c4cccc(C(F)(F)F)c4)C3(Cl)Cl)ccc2Cl)c1F (centres unmarked) [Compound 1243] | 100 |
| O=C(Nc1ncc(F)cc1F)c1cc(NC(=O)C2C(c3cc(Cl)c(Cl)c(Cl)c3)C2(Cl)Cl)ccc1Cl (centres unmarked) [Compound 1384] | 100 |
| COc1ccc(NC(=O)c2cc(NC(=O)C3C(c4cc(Cl)cc(Cl)c4)C3(Cl)Cl)ccc2Cl)cn1 (centres unmarked) [Compound 1075] | 100 |
| CN(C(=O)c1cc(NC(=O)C2C(c3cc(Cl)cc(Cl)c3)C2(Cl)Cl)ccc1Cl)c1ccc(F)cc1 (centres unmarked) [Compound 1022] | ≥ 80 |
| N#Cc1cccc(NC(=O)c2cc(NC(=O)C3C(c4cc(Cl)cc(Cl)c4)C3(Cl)Cl)ccc2Cl)c1 (centres unmarked) [Compound 1005] | 100 |
| Cc1cc(NC(=O)c2cc(NC(=O)C3C(c4cc(Cl)cc(Cl)c4)C3(Cl)Cl)ccc2Cl)cnc1F (centres unmarked) [Compound 1064] | 100 |
| O=C(Nc1ccnc(Cl)c1)c1cc(NC(=O)C2C(c3cc(Cl)cc(Cl)c3)C2(Cl)Cl)ccc1Cl (centres unmarked) [Compound 1055] | ≥ 80 |
| O=C(Nc1ncc(F)cc1F)c1c(Cl)ccc(NC(=O)C2C(c3cc(Cl)cc(Cl)c3)C2(Cl)Cl)c1F (centres unmarked) [Compound 1381] | 100 |
| O=C(Nc1ncc(F)cc1F)c1cc(NC(=O)C2C(c3ccc(F)c(C(F)F)c3)C2(Cl)Cl)ccc1Cl (centres unmarked) [Compound 1082] | 100 |
| Nc1c(F)ccc(NC(=O)c2cc(NC(=O)C3C(c4cccc(Cl)c4)C3(Cl)Cl)ccc2Cl)c1F (centres unmarked) [Compound 1248] | 100 |
| O=C(Nc1ncc(F)cc1F)c1cc(NC(=O)C2C(c3cc(F)cc(C(F)F)c3)C2(Cl)Cl)ccc1Cl (centres unmarked) [Compound 1081] | 100 |
| Cc1cc(Cl)cc(C2C(C(=O)Nc3ccc(Cl)c(C(=O)Nc4c(F)cccc4F)c3)C2(Cl)Cl)c1 (centres unmarked) [Compound 1018] | 100 |

Test system: Mobile stages of sea lice (pre-adults, adults of Lepeophtheirus salmonis)
Assay: Adult sea lice contact assay
Details: pre-adult/adult L. salmonis, assessed after approx. 1 and 24 hours, time of EC50 not stated, read-out: EC50 (sea lice inhibition, dead+damaged)
Method: Mobile stages of sea lice (i.e., pre-adults, adults of Lepeophtheirus salmonis) were exposed to seawater spiked with declining concentrations of a test compound (dissolved in a PEG sea-water mixture). Sea lice inhibition (% of dead+damaged sea lice) was assessed after approximately 1 and 24 hours of continuous exposure in comparison to a negative (solvent) control group.

| SMILES | EC50 [nM] |
| --- | --- |
| O=C(Nc1ncc(F)cn1)c1cc(NC(=O)[C@H]2[C@H](c3cc(Cl)cc(Cl)c3)C2(Cl)Cl)ccc1Cl [Compound 1372] | 1 to 10 |
| O=C(Nc1c(F)ccnc1F)c1cc(NC(=O)[C@H]2[C@H](c3cc(Cl)cc(Cl)c3)C2(Cl)Cl)ccc1Cl [Compound 1367] | 1 to 10 |
| O=C(Nc1ccc(F)cc1F)c1cc(NC(=O)[C@H]2[C@H](c3cc(Cl)cc(Cl)c3)C2(Cl)Cl)ccc1F [Compound 1091] | 1 to 10 |
| O=C(Nc1c(F)cc(F)cc1F)c1cc(NC(=O)C2C(c3cc(Cl)cc(Cl)c3)C2(Cl)Cl)ccc1Cl (centres unmarked) [Compound 1006] | ≤ 1 |
| O=C(Nc1ncc(F)cc1F)c1cc(NC(=O)[C@H]2[C@H](c3ccc(F)c(Cl)c3)C2(Cl)Cl)ccc1Cl [Compound 1042] | 1 to 10 |
| O=C(Nc1cnc(F)cc1F)c1cc(NC(=O)[C@H]2[C@H](c3cc(Cl)c(Cl)c(Cl)c3)C2(Cl)Cl)ccc1Cl [Compound 1380] | 1 to 10 |
| O=C(Nc1ccc(F)cc1F)c1cc(NC(=O)C2C(c3cc(C(F)(F)F)cc(C(F)(F)F)c3)C2(Cl)Cl)ccc1F (centres unmarked) [Compound 1387] | 1 to 10 |
| O=C(Nc1ncc(F)cc1F)c1cc(NC(=O)C2C(c3cc(Cl)c(F)c(Cl)c3)C2(Cl)Cl)ccc1Cl (centres unmarked) [Compound 1383] | 1 to 10 |
| O=C(Nc1c(F)cc(F)cc1F)c1cc(NC(=O)[C@H]2[C@H](c3cc(Cl)cc(Cl)c3)C2(Cl)Cl)ccc1Cl [Compound 1092] | 1 to 25 |
| O=C(Nc1ncc(F)cc1F)c1cc(NC(=O)[C@H]2[C@H](c3ccc(Cl)c(Cl)c3)C2(Cl)Cl)ccc1Cl [Compound 1041] | 1 to 10 |
| O=C(Nc1ncc(F)cc1F)c1cc(NC(=O)[C@H]2[C@H](c3cc(Cl)cc(Cl)c3)C2(Cl)Cl)ccc1Cl [Compound 1097] | 1 to 10 |
| O=C(Nc1cnc(F)cc1F)c1cc(NC(=O)[C@H]2[C@H](c3cc(Cl)cc(Cl)c3)C2(Cl)Cl)ccc1Cl [Compound 1366] | 1 to 10 |
| O=C(Nc1ccc(F)cc1F)c1cc(NC(=O)[C@H]2[C@H](c3cc(F)c(F)c(F)c3)C2(Cl)Cl)ccc1Cl [Compound 1094] | 1 to 10 |
| Cc1cc(NC(=O)c2cc(NC(=O)[C@H]3[C@H](c4cc(Cl)cc(Cl)c4)C3(Cl)Cl)ccc2Cl)ncc1F [Compound 1098] | 1 to 10 |

Same assay, conditions: read-out: EC50 (sea lice inhibition, dead+damaged)

| SMILES | EC50 [nM] |
| --- | --- |
| O=C(Nc1ccc(F)cc1)c1cc(NC(=O)C2C(c3cc(Cl)cc(Cl)c3)C2(Cl)Cl)ccc1F (centres unmarked) [Compound 1003] | 1 to 25 |
| O=C(Nc1ccc(F)cc1F)c1cc(NC(=O)[C@H]2[C@H](c3ccc(F)c(Cl)c3)C2(Cl)Cl)ccc1Cl [Compound 1087] | 1 to 25 |
